Test results reported in patent US20040121316A1 (priority 2002, published 2004).
Read-outs that look alike come from different tables or passages of the source.

What was measured:
84V90M HIV protease = 84V90M HIV protease (Human immunodeficiency virus type 1 group M subtype B, UniProt P04585, I572V/L578M); test: biochemical; parameters: species or system HIV-1
WT HIV-1 [1] = test: microbe, parasite or virus in culture; format: cell-based
HIV-1 84V90M = test: microbe, parasite or virus in culture; format: cell-based; conditions: Human immunodeficiency virus 1, read-out: Cell-based assay (MT-4) EC50/nM 84V90M
HIV-1 48V54V82A = test: microbe, parasite or virus in culture; format: cell-based
HIV-1 30N82I88D = test: microbe, parasite or virus in culture; format: cell-based
HIV-1 46I50V = test: microbe, parasite or virus in culture; format: cell-based
[2] = tested on: wild-type HIV-1 strain IIIB; test: microbe, parasite or virus in culture; format: cell-based; conditions: Human immunodeficiency virus 1, IIIB
in vitro = conditions: human
[3] = tested on: recombinant HIV-1 30N 50S 82I 88D; test: microbe, parasite or virus in culture; format: cell-based
[4] = tested on: recombinant HIV-1 10I 84V 71V 73S 90M; test: microbe, parasite or virus in culture; format: cell-based
[5] = tested on: recombinant HIV-1 46I 47V 50V; test: microbe, parasite or virus in culture; format: cell-based
WT HIV-1 [6] = test: microbe, parasite or virus in culture; format: cell-based; conditions: Human immunodeficiency virus 1, MT4, read-out: Cell-based assay (MT-4) EC50/nM WT
[7] = tested on: recombinant HIV-1 10I 48V 54V 82A; test: microbe, parasite or virus in culture; format: cell-based
[8] = tested on: recombinant HIV-1 10I 48V 71V 82A 90M; test: microbe, parasite or virus in culture; format: cell-based
[9] = tested on: recombinant HIV-1 48V 54V 71V 82S; test: microbe, parasite or virus in culture; format: cell-based
mutant HIV-1 I84V/L90M = test: Resistance Evaluation, I84V/L90M fold change; format: cell-based; conditions: mutant I84V/L90M vs wild type
[10] = tested on: recombinant HIV-1 strains with resistance mutations in the protease gene; test: Cross-Resistance Profile Assay, whole panel; format: cell-based; conditions: {}
HIV-1 48V54V82S = test: microbe, parasite or virus in culture; format: cell-based
HIV-1 48V82A90M = test: microbe, parasite or virus in culture; format: cell-based
[11] = Human immunodeficiency virus 1, read-out: Cell-based assay (MT-4) EC50/nM WT
[12] = Human immunodeficiency virus 1, read-out: Cell-based assay (MT-4) EC50/nM 48V54V82A
[13] = Human immunodeficiency virus 1, read-out: Cell-based assay (MT-4) EC50/nM 30N82I88D
[14] = Human immunodeficiency virus 1, read-out: Cell-based assay (MT-4) EC50/nM 46I50V
[15] = Human immunodeficiency virus 1, MT4, read-out: Cell-based assay (MT-4) EC50/nM 30N 82I 88D
[16] = Human immunodeficiency virus 1, MT4, read-out: Cell-based assay (MT-4) EC50/nM 47I 50V
[17] = Human immunodeficiency virus 1, MT4, read-out: Cell-based assay (MT-4) EC50/nM 48V 54V 82A
[18] = Human immunodeficiency virus 1, MT4, read-out: Cell-based assay (MT-4) EC50/nM 48V 82A 90M
[19] = Human immunodeficiency virus 1, MT4, read-out: Cell-based assay (MT-4) EC50/nM 48V 54V 82S
[20] = MT-4, 48V54V82S, read-out: Cell-based assay (MT-4) EC50/nM 48V54V82S
[21] = MT-4, 48V54V82A, read-out: Cell-based assay (MT-4) EC50/nM 48V54V82A
[22] = MT-4, 30N82I88D, read-out: Cell-based assay (MT-4) EC50/nM 30N82I88D
[23] = MT-4, 48V82A90M, read-out: Cell-based assay (MT-4) EC50/nM 48V82A90M
[24] = MT-4, 46I50V, read-out: Cell-based assay (MT-4) EC50/nM 46I50V

In the case of `CCOP(=O)(CCCNC(=O)c1cccc(CN2C(=O)N(Cc3ccc4[nH]nc(N)c4c3)C(Cc3ccccc3)C(O)C(O)C2Cc2ccccc2)c1)OCC` (stereo not shown) [drawing 809], the IC50 (84V90M HIV protease) is reported as 10 nM, the EC50 (WT HIV-1 [1]; [11]) is reported as 188 nM and the EC50 (HIV-1 84V90M) is reported as 476 nM. The EC50 (HIV-1 48V54V82A; [12]) was 240 nM, the EC50 (HIV-1 30N82I88D; [13]) was 666 nM and the EC50 (HIV-1 46I50V; [14]) was 319 nM.
`O=C1N(Cc2ccccc2)[C@H](Cc2ccccc2)[C@H](O)[C@@H](O)[C@@H](Cc2ccccc2)N1Cc1ccc2[nH]ncc2c1` [reference compound] gave an IC50 (84V90M HIV protease) of 43.3 nM, an EC50 (WT HIV-1 [1]; [11]) of 193 nM and an EC50 (HIV-1 84V90M) of 2310 nM. It also gave an EC50 (HIV-1 48V54V82A; [12]) of 705 nM, an EC50 (HIV-1 30N82I88D; [13]) of 281 nM and an EC50 (HIV-1 46I50V; [14]) of 772 nM.
For `CCOP(=O)(COc1ccc(C[C@H](NC(=O)O[C@H]2CO[C@H]3OCC[C@H]32)[C@H](O)CN(CC(C)C)S(=O)(=O)c2ccc(OC)cc2)cc1)OCC` [Compound 13], the EC50 ([2]; MT2, 120 h, read-out: Anti-HIV-1 Cell Culture Activity EC50) was 3 nM and the CC50 (in vitro) was 50000 nM.
In the case of `CCOP(=O)(COc1ccc(CC2C(O)C(O)C(Cc3ccc(OC)cc3)N(Cc3ccc(O)cc3)C(=O)N2Cc2ccc(O)cc2)cc1)OCC` (stereo not shown) [OCH3/Ph-pOH/OCH2PO3Et2], the EC50 [3, 15] is reported as 25 nM, the EC50 ([4]; Human immunodeficiency virus 1, MT4, read-out: Cell-based assay (MT-4) EC50/nM 84V 90M) is reported as 148 nM and the EC50 [5, 16] is reported as 90 nM. It also gave an EC50 (WT HIV-1 [6]) of 30 nM, an EC50 [7, 17] of 70 nM and an EC50 [8, 18] of 54 nM. For the same compound, the EC50 [9, 19] was 129 nM.
In the case of `CC(C)CN(CC(O)C(Cc1ccc(OCP(=O)(OCc2ccccc2)OCc2ccccc2)cc1)NC(=O)OC1COC2OCCC12)S(=O)(=O)c1ccc(OC(F)(F)F)cc1` (stereo not shown), the I84V/L90M fold change (mutant HIV-1 I84V/L90M) is reported as “+ (>3 to ≦10)” and the CC50 (in vitro) is reported as 5000 to 50000 nM.
With `CC(C)c1nc(CN(C)C(=O)N[C@H](C(=O)N[C@@H](Cc2ccccc2)C[C@H](O)[C@H](Cc2ccccc2)NC(=O)OCc2cncs2)C(C)C)cs1` [Ritonavir, reference compound] the EC50 [2] was under 50 nM and the “Total No. of Resistant Viruses” value [10] was 10.
Work on `CCCCN1C(=O)N(Cc2ccc3[nH]nc(N)c3c2)C(Cc2ccccc2)C(O)C(O)C1Cc1ccccc1` (stereo not shown) [DMP-851] yielded an EC50 (WT HIV-1 [1]; read-out: Cell-based assay (MT-4) EC50/nM WT) of 54 nM, an EC50 (HIV-1 48V54V82S; [20]) of 30 nM and an EC50 (HIV-1 48V54V82A; [21]) of 33 nM. It also gave an EC50 (HIV-1 30N82I88D; [22]) of 69 nM, an EC50 (HIV-1 48V82A90M; [23]) of 22 nM and an EC50 (HIV-1 46I50V; [24]) of 17 nM.
In the case of `CCOP(=O)(COc1ccc(CC2C(O)C(O)C(Cc3ccc(OC)cc3)N(Cc3cccnc3)C(=O)N2Cc2cccnc2)cc1)OCC` (stereo not shown) [OCH3, m-pyridine, OCH2PO3Et2], the EC50 (HIV-1 48V54V82S; [20]) is reported as 970 nM, the EC50 (HIV-1 48V54V82A; [21]) is reported as 1020 nM and the EC50 (HIV-1 30N82I88D; [22]) is reported as 106 nM. The EC50 (HIV-1 48V82A90M; [23]) was 480 nM and the EC50 (HIV-1 46I50V; [24]) was 352 nM.
`CCOP(=O)(COc1ccc(CC2C(O)C(O)C(Cc3ccccc3)N(Cc3ccc(O)cc3)C(=O)N2Cc2ccc(O)cc2)cc1)OCC` (stereo not shown) [H, Ph-pOH, OCH2PO3Et2] showed an EC50 (HIV-1 48V54V82S; Human immunodeficiency virus 1, read-out: Cell-based assay (MT-4) EC50/nM 48V54V82S) of 198 nM, an EC50 (HIV-1 48V54V82A; [12]) of 128 nM and an EC50 (HIV-1 30N82I88D; [13]) of 90 nM. For the same compound, the EC50 (HIV-1 48V82A90M; Human immunodeficiency virus 1, read-out: Cell-based assay (MT-4) EC50/nM 48V82A90M) was 126 nM and the EC50 (HIV-1 46I50V; [14]) was 144 nM.
In the case of `CCOP(=O)(COc1ccc(CC2C(O)C(O)C(Cc3ccccc3)N(Cc3ccc(O)cc3)C(=O)N2Cc2ccc(O)cc2)cc1)OCC` (stereo not shown) [H/Ph-pOH/OCH2PO3Et2], the EC50 [3, 15] is reported as 90 nM, the EC50 [5, 16] is reported as 144 nM and the EC50 (WT HIV-1 [6]) is reported as 65 nM. The EC50 [7, 17] was 128 nM, the EC50 [8, 18] was 146 nM and the EC50 [9, 19] was 222 nM.
`Nc1n[nH]c2ccc(CN3C(=O)N(Cc4ccc(O)cc4)C(Cc4ccccc4)C(O)C(O)C3Cc3ccccc3)cc12` (stereo not shown) [p-OH] showed an EC50 (HIV-1 48V54V82S; [20]) of 39 nM, an EC50 (HIV-1 48V54V82A; [21]) of 32 nM and an EC50 (HIV-1 30N82I88D; [22]) of 79 nM. For the same compound, the EC50 (HIV-1 48V82A90M; [23]) was 19 nM and the EC50 (HIV-1 46I50V; [24]) was 55 nM.
For `CCOP(=O)(CCNC(=O)Oc1ccc(CC2C(O)C(O)C(Cc3ccc(OC)cc3)N(Cc3cccc(N)c3)C(=O)N2Cc2cccc(N)c2)cc1)OCC` (stereo not shown) [OCH3/Ph-mNH2/OCONH(CH2)2PO3Et2], the EC50 ([3]; MT-4 cells, strain printed as 30N 82I 88D, read-out: Cell-based assay (MT-4) EC50/nM 30N 82I 88D) was 77 nM, the EC50 ([4]; read-out: Cell-based assay (MT-4) EC50/nM 84V 90M, MT-4 cells, strain printed as 84V 90M) was 2260 nM and the EC50 ([5]; MT-4 cells, strain printed as 47I50V, read-out: Cell-based assay (MT-4) EC50/nM 47I 50V) was 184 nM. The EC50 ([7]; MT-4 cells, strain printed as 48V 54V 82A, read-out: Cell-based assay (MT-4) EC50/nM 48V 54V 82A) was 262 nM, the EC50 ([8]; read-out: Cell-based assay (MT-4) EC50/nM 48V 82A 90M, MT-4 cells, strain printed as 48V 82A 90M) was 215 nM and the EC50 ([9]; MT-4 cells, strain printed as 48V 54V 82S, read-out: Cell-based assay (MT-4) EC50/nM 48V 54V 82S) was 214 nM.
